Reference: patent US11352339B2 (MISSION THERAPEUTICS LIMITED, priority 2016, dated 2022)

Biological target: USP30 (Homo sapiens (Human), UniProt Q70CQ3)
Test: USP30 Biochemical IC50 Assay
Conditions: fluorescence polarisation, TAMRA labelled peptide linked to ubiquitin; 30 min pre-incubation, read after 2 h; read-out: IC50 range
Method: Reactions were performed in duplicate in black 384 well plates (small volume, Greiner 784076) in a final reaction volume of 21 μl. Either 1 μl of 50% DMSO or diluted compound was added to the plate. […] Enzyme and compound were incubated for 30 min at room temp. Reactions were initiated by the addition of 50 nM of TAMRA labelled peptide linked to ubiquitin via an iso-peptide bond as fluorescence polarisation substrate. Reactions were read immediately after addition of substrate and following a 2 h incubation at room temperature. Readings were performed on a Pherastar Plus (BMG Labtech). λ Excitation 540 nm; λ Emission 590 nm.

Chain of USP30 (Q70CQ3 57-517): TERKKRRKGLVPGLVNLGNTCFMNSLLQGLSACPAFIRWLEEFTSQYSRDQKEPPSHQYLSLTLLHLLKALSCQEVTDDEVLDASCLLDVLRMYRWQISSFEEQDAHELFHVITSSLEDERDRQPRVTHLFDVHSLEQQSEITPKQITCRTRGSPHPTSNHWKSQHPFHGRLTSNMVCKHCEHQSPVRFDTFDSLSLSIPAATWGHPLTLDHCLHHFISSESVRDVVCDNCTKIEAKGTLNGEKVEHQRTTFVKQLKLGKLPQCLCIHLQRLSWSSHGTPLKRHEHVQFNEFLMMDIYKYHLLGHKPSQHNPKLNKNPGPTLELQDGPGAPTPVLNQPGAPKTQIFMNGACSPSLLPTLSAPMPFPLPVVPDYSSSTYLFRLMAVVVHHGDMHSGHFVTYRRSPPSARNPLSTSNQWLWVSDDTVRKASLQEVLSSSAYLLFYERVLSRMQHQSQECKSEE

IC50 [nM] | SMILES
100 to 1000 | N#CN1CCC(c2nc3cc(-c4ccccc4)cnc3[nH]2)C1 (centres unmarked) [Example 83, 3-(6-Phenyl-3H-imidazo[4,5-b]pyridin-2-yl)pyrrolidine-1-carbonitrile]
100 to 1000 | N#CN1CCC(c2nc3cc(-c4ccccc4)ccc3[nH]2)C1 (centres unmarked) [Example 95, 3-(5-Phenyl-1H-benzo[d]imidazol-2-yl)pyrrolidine-1-carbonitrile]
1000 to 10000 | N#CN1CCC(c2nc3ccc(-c4ccccc4)nc3[nH]2)C1 (centres unmarked) [Example 97, 3-(5-Phenyl-3H-imidazo[4,5-b]pyridin-2-yl)pyrrolidine-1-carbonitrile]
1000 to 10000 | N#CN1CCC(c2nc3nccc(-c4ccccc4)c3[nH]2)C1 (centres unmarked) [Example 98, 3-(7-Phenyl-3H-imidazo[4,5-b]pyridin-2-yl)pyrrolidine-1-carbonitrile]
100 to 1000 | Cc1nc2nc(C3CCN(C#N)C3)[nH]c2cc1-c1ccccc1 (centres unmarked) [Example 99, 3-(5-Methyl-6-phenyl-3H-imidazo[4,5-b]pyridin-2-yl)pyrrolidine-1-carbonitrile]
100 to 1000 | Cc1c(-c2ccccc2)cnc2nc(C3CCN(C#N)C3)[nH]c12 (centres unmarked) [Example 100, 3-(7-Methyl-6-phenyl-3H-imidazo[4,5-b]pyridin-2-yl)pyrrolidine-1-carbonitrile]
1000 to 10000 | N#CN1CCC(c2nnc(-c3ccccc3)[nH]2)C1 (centres unmarked) [Example 106, 3-(5-Phenyl-4H-1,2,4-triazol-3-yl)pyrrolidine-1-carbonitrile]
100 to 1000 | N#CN1CCC(c2nnc(-c3cccc(-c4ccccc4)n3)[nH]2)C1 (centres unmarked) [Example 110, 3-(5-(6-Phenylpyridin-2-yl)-4H-1,2,4-triazol-3-yl)pyrrolidine-1-carbonitrile]
100 to 1000 | N#CN1CCC(c2nnc(-c3ccc(-c4ccccc4)cc3)[nH]2)C1 (centres unmarked) [Example 112, 3-(3-([1,1′-Biphenyl]-4-yl)-1H-1,2,4-triazol-5-yl)pyrrolidine-1-carbonitrile]
1000 to 10000 | N#CN1CCC(c2ncc(-c3ccccc3)c(=O)[nH]2)C1 (centres unmarked) [Example 120, 3-(6-Oxo-5-phenyl-1,6-dihydropyrimidin-2-yl)pyrrolidine-1-carbonitrile]

The next lines start with the compound.

SMILES | IC50 [nM]
CNC(=O)c1ccc(-c2ccc3nc(C4CCN(C#N)C4)[nH]c3c2)cc1 (centres unmarked) [Example 75, 4-(2-(1-Cyanopyrrolidin-3-yl)-1H-benzo[d]imidazol-6-yl)-N-methylbenzamide] | 100 to 1000
Cc1ccc(F)c(-c2ccc3nc(C4CCN(C#N)C4)[nH]c3c2)c1 (centres unmarked) [Example 76, 3-(6-(2-Fluoro-5-methylphenyl)-1H-benzo[d]imidazol-2-yl)pyrrolidine-1-carbonitrile] | < 100
CC(C)Oc1ccc(-c2ccc3nc(C4CCN(C#N)C4)[nH]c3c2)cn1 (centres unmarked) [Example 77, 3-(6-(6-Isopropoxypyridin-3-yl)-1H-benzo[d]imidazol-2-yl)pyrrolidine-1-carbonitrile] | 100 to 1000
CC(C)Cn1cc(-c2ccc3nc(C4CCN(C#N)C4)[nH]c3c2)cn1 (centres unmarked) [Example 78, 3-(6-(1-Isobutyl-1H-pyrazol-4-yl)-1H-benzo[d]imidazol-2-yl)pyrrolidine-1-carbonitrile] | 1000 to 10000
N#CN1CCC(c2nc3ccc(-c4ccc(C(=O)NCc5ccccc5)cc4)cc3[nH]2)C1 (centres unmarked) [Example 79, N-Benzyl-4-(2-(1-cyanopyrrolidin-3-yl)-1H-benzo[d]imidazol-6-yl)benzamide] | 100 to 1000
N#CN1CCC(c2nc3cc(-c4ccncc4)cnc3[nH]2)C1 (centres unmarked) [Example 80, 3-(6-(Pyridin-4-yl)-3H-imidazo[4,5-b]pyridin-2-yl)pyrrolidine-1-carbonitrile] | 100 to 1000
N#Cc1ccc(-c2cnc3[nH]c(C4CCN(C#N)C4)nc3c2)cc1 (centres unmarked) [Example 84, 3-(6-(4-Cyanophenyl)-3H-imidazo[4,5-b]pyridin-2-yl)pyrrolidine-1-carbonitrile] | 100 to 1000
N#Cc1cccc(-c2cnc3[nH]c(C4CCN(C#N)C4)nc3c2)c1 (centres unmarked) [Example 85, 3-(6-(3-Cyanophenyl)-3H-imidazo[4,5-b]pyridin-2-yl)pyrrolidine-1-carbonitrile] | 100 to 1000
COc1ccc(-c2cnc3[nH]c(C4CCN(C#N)C4)nc3c2)cn1 (centres unmarked) [Example 86, 3-(6-(6-Methoxypyridin-3-yl)-3H-imidazo[4,5-b]pyridin-2-yl)pyrrolidine-1-carbonitrile] | 100 to 1000
N#CN1CCC(c2nc3cc(-c4ccc5[nH]ncc5c4)cnc3[nH]2)C1 (centres unmarked) [Example 87, 3-(6-(1H-Indazol-5-yl)-3H-imidazo[4,5-b]pyridin-2-yl)pyrrolidine-1-carbonitrile] | 100 to 1000
N#CN1CCC(c2nc3cc(-c4cn[nH]c4)cnc3[nH]2)C1 (centres unmarked) [Example 88, 3-(6-(1H-Pyrazol-4-yl)-3H-imidazo[4,5-b]pyridin-2-yl)pyrrolidine-1-carbonitrile] | 1000 to 10000
CNC(=O)c1cccc(-c2cnc3[nH]c(C4CCN(C#N)C4)nc3c2)c1 (centres unmarked) [Example 89, 3-(2-(1-Cyanopyrrolidin-3-yl)-3H-imidazo[4,5-b]pyridin-6-yl)-N-methylbenzamide] | 1000 to 10000
N#CN1CCC[C@H]1c1nc2ccc(-c3ccccc3)cc2[nH]1 [Example 94, (S)-2-(6-Phenyl-1H-benzo[d]imidazol-2-yl)pyrrolidine-1-carbonitrile] | 1000 to 10000
Cn1c([C@@H]2CCCN2C#N)nc2cc(-c3ccccc3)ccc21 [Example 96, (S)-2-(1-Methyl-5-phenyl-1H-benzo[d]imidazol-2-yl)pyrrolidine-1-carbonitrile] | 10000 to 100000
Cn1c(C2CCN(C#N)C2)nc2cc(-c3ccccc3)cnc21 (centres unmarked) [Example 101, 3-(3-Methyl-6-phenyl-3H-imidazo[4,5-b]pyridin-2-yl)pyrrolidine-1-carbonitrile] | 100 to 1000
N#CN1CCC(c2nnc(-c3ccccn3)[nH]2)C1 (centres unmarked) [Example 105, 3-(5-(Pyridin-2-yl)-4H-1,2,4-triazol-3-yl)pyrrolidine-1-carbonitrile] | 1000 to 10000
N#CN1CCC(c2nnc(-c3ccc4nc[nH]c4c3)[nH]2)C1 (centres unmarked) [Example 107, 3-(5-(1H-Benzo[d]imidazol-6-yl)-4H-1,2,4-triazol-3-yl)pyrrolidine-1-carbonitrile] | 1000 to 10000
N#CN1CCC(c2nnc(-c3ccc4nccn4c3)[nH]2)C1 (centres unmarked) [Example 108, 3-(5-(Imidazo[1,2-a]pyridin-6-yl)-4H-1,2,4-triazol-3-yl)pyrrolidine-1-carbonitrile] | 1000 to 10000
N#CN1CCC(c2n[nH]c(-c3cc(-c4ccccc4)ccn3)n2)C1 (centres unmarked) [Example 109, 3-(5-(4-Phenylpyridin-2-yl)-4H-1,2,4-triazol-3-yl)pyrrolidine-1-carbonitrile] | 100 to 1000
N#CN1CCC(c2n[nH]c(-c3cccc(-c4ccccc4)c3)n2)C1 (centres unmarked) [Example 111, 3-(3-([1,1′-Biphenyl]-3-yl)-1H-1,2,4-triazol-5-yl)pyrrolidine-1-carbonitrile] | < 100
N#CN1CCC(c2cc(-c3cccc(-c4ccccc4)c3)no2)C1 (centres unmarked) [Example 117, 3-(3-([1,1′-Biphenyl]-3-yl)isoxazol-5-yl)pyrrolidine-1-carbonitrile] | < 100
Cc1cn(-c2ccc3n(c2=O)CCN([C@@H]2CCN(C#N)C2)C3=O)cn1 [Example 121, (R)-3-(7-(4-Methyl-1H-imidazol-1-yl)-1,6-dioxo-1,3,4,6-tetrahydro-2H-pyrido[1,2-a]pyrazin-2-yl)pyrrolidine-1-carbonitrile] | 1000 to 10000
